{"source": "patent US6946458B2", "about": "“N-thiolated beta-lactams: novel antibacterial agents for methicillin-resistant Staphylococcus aureus” (University of South Florida, priority 1999, dated 2005)", "key": {"[1]": {"tested_on": "bacterial uptake of ^3H-uridine and ^3H-leucine", "experiment": "pulse radiolabeling experiments", "type": "cell-based", "conditions": "at low (MIC) levels", "text": "(§1) In fact, only small isolated colonies of surviving cells can be found, all of which appear perfectly normal in size, shape, smoothness, and clustering behavior. […] Pulse radiolabeling experiments indicate that the lactam of FIG. 1D blocks the bacterial uptake of ^3H-uridine and ^3H-leucine at low (MIC) levels (Lim, D. V. et al. Microbiology, 1977, 33:328; Champney, W. S. and C. G. Tober Antimicrob. Agents and Chemother., 2000, 44:1413)."}, "[2]": {"tested_on": "S. saprophyticus (ATCC 3552)", "experiment": "Kirby-Bauer agar disk diffusion", "type": "cell-based, Staphylococcus saprophyticus", "conditions": "Table 1; 6-mm disks, 20 μg test compound, 24 h, triplicate", "protocol": "(§2) In this study, a selection of N-methylthio-substituted β-lactams are examined for antimicrobial activity by the Kirby-Bauer disk diffusion method on agar plates. A variety of common Gram-positive and Gram-negative bacteria are tested, including clinical isolates of methicillin-resistant Staphylococcus aureus (MRSA).\n(§3) Compound susceptibility measurements are obtained from agar disk diffusion experiments using 6-mm air-dried disks impregnated with 20 μg of the test compound. The values correspond to the average diameters in mm (triplicate experiments) for the zone of growth inhibition observed after 24 h. Staphylococcus aureus (ATCC 25923) and β-lactamase-producing strains of methicillin-resistant Staphylococcus aureus (labeled as MRSA USF652-659) are obtained from Lakeland Regional Medical Center, Lakeland, Fla. Staphylococcus epidermidis, Staphylococcus simulans, Staphylococcus simulans, and Microcossus luteus are clinical isolates from University of South Florida Medical Clinic. Nieserria gonnorhoeae (β-lactamase positive) is obtained from the Tampa Branch State Laboratory. PenG is penicillin G (potassium salt). Table 1 provides the zones of growth inhibition that are observed after 24 hours using the lactams of FIGS. 1A-1I (designated A-I, respectively).\n(§4) Of particular interest is the ability of these compounds to retain their effectiveness against penicillin-resistant strains of Staphylococcus aureus, a dangerous hospital-borne pathogen which is becoming difficult to treat with conventional antibiotic therapy. The lactams were screened for antibacterial activity by disk diffusion on agar plates, and the resulting zones of bacterial growth inhibition measured (see Table 3; each lactam is designated by Figure number).\n(§5) Table 3: Growth inhibition zones obtained from agar disk diffusion experiments using 6-mm air-dried disks impregnated with 20 μg of the test compound. The values correspond to the average diameters in mm for the zone of growth inhibition observed after 24 hours. Staphylococcus aureus and β-lactamase-producing strains of methicillin-resistant Staphylococcus aureus (labeled MRSA USF652-659) are obtained from a clinical testing laboratory at Lakeland Regional Medical Center, Lakeland, Fla."}, "MRSA cells": {"tested_on": "MRSA cells", "experiment": "light microscopy after Gram staining", "type": "cell-based, Staphylococcus aureus", "conditions": "Example 1", "text": "as §1\n(FIGS. 14A-14C) S. aureus is a Gram-positive microorganism, and thus reacts with Gram stain to produce a purple coloration due to binding of the stain to the peptidoglycan. 100% of MRSA cells grown either in the absence or presence of the lactam of FIG. 11F take on a purple color when Gram stained (top and center images, next page). In contrast, for MRSA cells treated with penicillin G or vancomycin (cell wall synthesis inhibitors), only about 30% of the cells are Gram-stained purple, with the remainder of the cells appearing pink (bottom image, next page) due to morphologically altered walls. This is strong evidence that the N-methylthio lactams are not affecting late stage events in cell wall biosynthesis."}, "[3]": {"tested_on": "Staphylococcus aureus (ATCC 25923)", "experiment": "Kirby-Bauer agar disk diffusion", "type": "cell-based", "conditions": "Table 1; 6-mm disks, 20 μg test compound, 24 h, triplicate", "protocol": "as §2, §3, §4, §5"}, "[4]": {"tested_on": "Staphylococcus epidermidis", "experiment": "Kirby-Bauer agar disk diffusion", "type": "cell-based", "conditions": "Table 1; 6-mm disks, 20 μg test compound, 24 h, triplicate", "protocol": "as §2, §3, §4, §5"}, "Micrococcus luteus": {"tested_on": "Micrococcus luteus", "experiment": "Kirby-Bauer agar disk diffusion", "type": "cell-based", "conditions": "Table 1; 6-mm disks, 20 μg test compound, 24 h, triplicate", "protocol": "as §2, §3, §4, §5"}, "MRSA USF658": {"tested_on": "MRSA USF658", "experiment": "Kirby-Bauer agar disk diffusion", "type": "cell-based, Staphylococcus aureus", "conditions": "Table 1; 6-mm disks, 20 μg test compound, 24 h, triplicate", "method_in_brief": "(§6)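 Agar disk diffusion against β-lactamase-producing MRSA clinical isolates, using 6-mm air-dried disks loaded with 20 μg test compound. Growth-inhibition zone diameter (mm) read after 24 h; values are means of triplicate experiments.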"}, "MRSA USF659": {"tested_on": "MRSA USF659", "experiment": "Kirby-Bauer agar disk diffusion", "type": "cell-based, Staphylococcus aureus", "conditions": "Table 1; 6-mm disks, 20 μg test compound, 24 h, triplicate", "method_in_brief": "as §6"}, "MRSA USF657": {"tested_on": "MRSA USF657", "experiment": "Kirby-Bauer agar disk diffusion", "type": "cell-based, Staphylococcus aureus", "conditions": "Table 1; 6-mm disks, 20 μg test compound, 24 h, triplicate", "method_in_brief": "as §6"}, "MRSA USF654": {"tested_on": "MRSA USF654", "experiment": "Kirby-Bauer agar disk diffusion", "type": "cell-based, Staphylococcus aureus", "conditions": "Table 1; 6-mm disks, 20 μg test compound, 24 h, triplicate", "method_in_brief": "as §6"}, "MRSA USF653": {"tested_on": "MRSA USF653", "experiment": "Kirby-Bauer agar disk diffusion", "type": "cell-based, Staphylococcus aureus", "conditions": "Table 1; 6-mm disks, 20 μg test compound, 24 h, triplicate", "method_in_brief": "as §6"}, "MRSA USF655": {"tested_on": "MRSA USF655", "experiment": "Kirby-Bauer agar disk diffusion", "type": "cell-based, Staphylococcus aureus", "conditions": "Table 1; 6-mm disks, 20 μg test compound, 24 h, triplicate", "method_in_brief": "as §6"}, "MRSA USF652": {"tested_on": "MRSA USF652", "experiment": "Kirby-Bauer agar disk diffusion", "type": "cell-based, Staphylococcus aureus", "conditions": "Table 1; 6-mm disks, 20 μg test compound, 24 h, triplicate", "method_in_brief": "as §6"}, "MRSA USF656": {"tested_on": "MRSA USF656", "experiment": "Kirby-Bauer agar disk diffusion", "type": "cell-based, Staphylococcus aureus", "conditions": "Table 1; 6-mm disks, 20 μg test compound, 24 h, triplicate", "method_in_brief": "as §6"}, "MRSA strains": {"tested_on": "MRSA strains", "experiment": "MIC by agar dilution", "type": "cell-based, Staphylococcus aureus", "text": "(§7) However, the N-alkylthio substituent is required, since reduction to the N—H analogue completely destroys the biological activity."}, "N. gonorrhoeae": {"tested_on": "N. gonorrhoeae", "experiment": "Kirby-Bauer agar disk diffusion", "type": "cell-based, Neisseria gonorrhoeae", "conditions": "Table 1; 6-mm disks, 20 μg test compound, 24 h, triplicate; β-lactamase positive", "protocol": "as §2, §3"}, "[5]": {"tested_on": "cultures of S. aureus and MRSA", "experiment": "electron microscopy of cell morphology", "type": "cell-based, Staphylococcus aureus", "conditions": "Example 1; electron microscopy, high magnification; listed as FIG. 1D", "text": "The structure-bioactivity patterns observed for these N-thiolated lactams are highly atypical for a β-lactam antibiotic. The compounds are lipohilic and devoid of the typical acidic ring functionality required for recognition by the penicillin binding proteins. The implication that the lactams set forth in FIGS. 1A-1I are not acting in the same manner or on the same enzymes as the traditional β-lactam drugs is supported by electron microscopy experiments, which confirm that cell morphology is unaffected by the lactam of FIG. 1D (Greenwood, D. et al. Science, 1969, 163:1076).\nas §1\nLight microscopy and scanning electron microscopy experiments have enabled us to look for cell wall damage in cultures of S. aureus and MRSA grown in the presence of N-methylthio lactam (FIG. 11F) over a range of different concentrations and cell growth conditions. […] Those cells that survive the treatment appear normal (coccal) and fully mature."}, "Staphylococcus aureus": {"tested_on": "Staphylococcus aureus", "experiment": "MIC by agar dilution", "type": "cell-based", "text": "as §7"}, "S. simulans (ATCC 11631)": {"tested_on": "S. simulans (ATCC 11631)", "experiment": "Kirby-Bauer agar disk diffusion", "type": "cell-based, Staphylococcus simulans", "conditions": "Table 1; 6-mm disks, 20 μg test compound, 24 h, triplicate", "protocol": "as §2, §3, §4, §5"}}, "note": "Entries after “also recorded” stand apart in the source; their conditions may differ.", "data": [{"smiles": "COC1C(=O)N(SC)C1c1ccccc1Cl", "note": "(racemic) [Lactam D]", "values": [{"measurement": "bacterial uptake of ^3H-leucine", "setting": "[1]", "result": "blocks"}, {"measurement": "bacterial uptake of ^3H-uridine", "setting": "[1]", "result": "blocks"}, {"measurement": "zone of growth inhibition, average diameter", "setting": "[2]", "result": 20, "unit": "mm"}, {"measurement": "coloration upon Gram staining", "setting": "MRSA cells", "result": "uniform purple coloration"}, {"measurement": "zone of growth inhibition, average diameter", "setting": "[3]", "result": 26, "unit": "mm"}, {"measurement": "zone of growth inhibition, average diameter", "setting": "[4]", "result": 29, "unit": "mm"}, {"measurement": "zone of growth inhibition, average diameter", "setting": "Micrococcus luteus", "result": 24, "unit": "mm"}, {"measurement": "zone of growth inhibition, average diameter", "setting": "MRSA USF658", "result": 27, "unit": "mm"}, {"measurement": "zone of growth inhibition, average diameter", "setting": "MRSA USF659", "result": 24, "unit": "mm"}, {"measurement": "zone of growth inhibition, average diameter", "setting": "MRSA USF657", "result": 28, "unit": "mm"}, {"measurement": "zone of growth inhibition, average diameter", "setting": "MRSA USF654", "result": 26, "unit": "mm"}, {"measurement": "zone of growth inhibition, average diameter", "setting": "MRSA USF653", "result": 30, "unit": "mm"}, {"measurement": "zone of growth inhibition, average diameter", "setting": "MRSA USF655", "result": 26, "unit": "mm"}, {"measurement": "zone of growth inhibition, average diameter", "setting": "MRSA USF652", "result": 30, "unit": "mm"}, {"measurement": "zone of growth inhibition, average diameter", "setting": "MRSA USF656", "result": 28, "unit": "mm"}, {"measurement": "Minimum inhibitory concentration (MIC)", "setting": "MRSA strains", "result": "5 to 10", "unit": "µg/mL"}, {"measurement": "zone of growth inhibition, average diameter", "setting": "N. gonorrhoeae", "result": 19, "unit": "mm"}, {"measurement": "cell morphology", "setting": "[5]", "result": "unaffected; also recorded: no visible damage or morphological deformities"}, {"measurement": "Minimum inhibitory concentration (MIC)", "setting": "Staphylococcus aureus", "result": 15, "unit": "µg/mL"}, {"measurement": "zone of growth inhibition, average diameter", "setting": "S. simulans (ATCC 11631)", "result": 16, "unit": "mm"}]}, {"smiles": "COC1C(=O)N(SC)C1c1ccc(C#N)cc1", "note": "(racemic) [Lactam G]", "values": [{"measurement": "zone of growth inhibition, average diameter", "setting": "[2]", "result": 14, "unit": "mm"}, {"measurement": "zone of growth inhibition, average diameter", "setting": "[3]", "result": 14, "unit": "mm"}, {"measurement": "zone of growth inhibition, average diameter", "setting": "[4]", "result": 20, "unit": "mm"}, {"measurement": "zone of growth inhibition, average diameter", "setting": "Micrococcus luteus", "result": 21, "unit": "mm"}, {"measurement": "zone of growth inhibition, average diameter", "setting": "MRSA USF658", "result": 12, "unit": "mm"}, {"measurement": "zone of growth inhibition, average diameter", "setting": "MRSA USF659", "result": 12, "unit": "mm"}, {"measurement": "zone of growth inhibition, average diameter", "setting": "MRSA USF657", "result": 10, "unit": "mm"}, {"measurement": "zone of growth inhibition, average diameter", "setting": "MRSA USF654", "result": 12, "unit": "mm"}, {"measurement": "zone of growth inhibition, average diameter", "setting": "MRSA USF653", "result": 16, "unit": "mm"}, {"measurement": "zone of growth inhibition, average diameter", "setting": "MRSA USF655", "result": 12, "unit": "mm"}, {"measurement": "zone of growth inhibition, average diameter", "setting": "MRSA USF652", "result": 14, "unit": "mm"}, {"measurement": "zone of growth inhibition, average diameter", "setting": "MRSA USF656", "result": 13, "unit": "mm"}, {"measurement": "zone of growth inhibition, average diameter", "setting": "N. gonorrhoeae", "result": 12, "unit": "mm"}, {"measurement": "zone of growth inhibition, average diameter", "setting": "S. simulans (ATCC 11631)", "result": 0, "unit": "mm"}]}]}
